Values after ≈ are worked out from the molar mass of the structure shown.
Experiments:
Pseudomonas aeruginosa [1] = assay: Antibacterial activity against beta-lactamase IMP-13 producing Pseudomonas aeruginosa isolate 1; assay type: functional
Pseudomonas aeruginosa [2] = assay: Antibacterial activity against beta-lactamase IMP-13 producing Pseudomonas aeruginosa isolate 2; assay type: functional
Pseudomonas aeruginosa [3] = assay: Antibacterial activity against beta-lactamase IMP-13 producing Pseudomonas aeruginosa isolate 3; assay type: functional
Pseudomonas aeruginosa [4] = assay: Antibacterial activity against beta-lactamase IMP-13 producing Pseudomonas aeruginosa isolate 4; assay type: functional
Pseudomonas aeruginosa [5] = assay: Antibacterial activity against beta-lactamase IMP-13 producing Pseudomonas aeruginosa isolate 5; assay type: functional
Pseudomonas aeruginosa [6] = assay: Antibacterial activity against beta-lactamase IMP-13 producing Pseudomonas aeruginosa isolate 6
Pseudomonas aeruginosa [7] = assay: Antibacterial activity against beta-lactamase IMP-13 producing Pseudomonas aeruginosa isolate 7; assay type: functional
Pseudomonas aeruginosa [8] = assay: Antibacterial activity against beta-lactamase IMP-13 producing Pseudomonas aeruginosa isolate 8; assay type: functional
Pseudomonas aeruginosa [9] = assay: Antibacterial activity against beta-lactamase IMP-13 producing Pseudomonas aeruginosa isolate 9
Pseudomonas aeruginosa [10] = assay: Antibacterial activity against beta-lactamase IMP-13 producing Pseudomonas aeruginosa isolate 10; assay type: functional
Pseudomonas aeruginosa [11] = assay: Antibacterial activity against beta-lactamase IMP-13 producing Pseudomonas aeruginosa isolate 11; assay type: functional
Pseudomonas aeruginosa [12] = assay: Antibacterial activity against beta-lactamase IMP-13 producing Pseudomonas aeruginosa isolate 12; assay type: functional
Pseudomonas aeruginosa [13] = assay: Antibacterial activity against beta-lactamase IMP-13 producing Pseudomonas aeruginosa isolate 13; assay type: functional
Pseudomonas aeruginosa [14] = assay: Antibacterial activity against beta-lactamase IMP-13 producing Pseudomonas aeruginosa isolate 14; assay type: functional
Pseudomonas aeruginosa [15] = assay: Antibacterial activity against beta-lactamase IMP-13 producing Pseudomonas aeruginosa isolate 15; assay type: functional
Pseudomonas aeruginosa [16] = assay: Antibacterial activity against beta-lactamase IMP-13 producing Pseudomonas aeruginosa isolate 16; assay type: functional
Pseudomonas aeruginosa [17] = assay: Antibacterial activity against beta-lactamase IMP-13 producing Pseudomonas aeruginosa isolate 17
Pseudomonas aeruginosa [18] = assay: Antibacterial activity against beta-lactamase IMP-13 producing Pseudomonas aeruginosa isolate 18
Pseudomonas aeruginosa [19] = assay: Antibacterial activity against beta-lactamase IMP-13 producing Pseudomonas aeruginosa isolate 1 assessed as zone of inhibition by disk diffusion assay; assay type: functional
Pseudomonas aeruginosa [20] = assay: Antibacterial activity against beta-lactamase IMP-13 producing Pseudomonas aeruginosa isolate 2 assessed as zone of inhibition by disk diffusion assay; assay type: functional
Pseudomonas aeruginosa [21] = assay: Antibacterial activity against beta-lactamase IMP-13 producing Pseudomonas aeruginosa isolate 3 assessed as zone of inhibition by disk diffusion assay; assay type: functional
Pseudomonas aeruginosa [22] = assay: Antibacterial activity against beta-lactamase IMP-13 producing Pseudomonas aeruginosa isolate 4 assessed as zone of inhibition by disk diffusion assay; assay type: functional
Pseudomonas aeruginosa [23] = assay: Antibacterial activity against beta-lactamase IMP-13 producing Pseudomonas aeruginosa isolate 5 assessed as zone of inhibition by disk diffusion assay; assay type: functional
Pseudomonas aeruginosa [24] = assay: Antibacterial activity against beta-lactamase IMP-13 producing Pseudomonas aeruginosa isolate 6 assessed as zone of inhibition by disk diffusion assay; assay type: functional
Pseudomonas aeruginosa [25] = assay: Antibacterial activity against beta-lactamase IMP-13 producing Pseudomonas aeruginosa isolate 7 assessed as zone of inhibition by disk diffusion assay; assay type: functional
Pseudomonas aeruginosa [26] = assay: Antibacterial activity against beta-lactamase IMP-13 producing Pseudomonas aeruginosa isolate 8 assessed as zone of inhibition by disk diffusion assay; assay type: functional
Pseudomonas aeruginosa [27] = assay: Antibacterial activity against beta-lactamase IMP-13 producing Pseudomonas aeruginosa isolate 9 assessed as zone of inhibition by disk diffusion assay; assay type: functional
Pseudomonas aeruginosa [28] = assay: Antibacterial activity against beta-lactamase IMP-13 producing Pseudomonas aeruginosa isolate 10 assessed as zone of inhibition by disk diffusion assay; assay type: functional
Pseudomonas aeruginosa [29] = assay: Antibacterial activity against beta-lactamase IMP-13 producing Pseudomonas aeruginosa isolate 11 assessed as zone of inhibition by disk diffusion assay; assay type: functional
Pseudomonas aeruginosa [30] = assay: Antibacterial activity against beta-lactamase IMP-13 producing Pseudomonas aeruginosa isolate 12 assessed as zone of inhibition by disk diffusion assay; assay type: functional
Pseudomonas aeruginosa [31] = assay: Antibacterial activity against beta-lactamase IMP-13 producing Pseudomonas aeruginosa isolate 13 assessed as zone of inhibition by disk diffusion assay; assay type: functional
Pseudomonas aeruginosa [32] = assay: Antibacterial activity against beta-lactamase IMP-13 producing Pseudomonas aeruginosa isolate 14 assessed as zone of inhibition by disk diffusion assay; assay type: functional
Pseudomonas aeruginosa [33] = assay: Antibacterial activity against beta-lactamase IMP-13 producing Pseudomonas aeruginosa isolate 15 assessed as zone of inhibition by disk diffusion assay; assay type: functional
Pseudomonas aeruginosa [34] = assay: Antibacterial activity against beta-lactamase IMP-13 producing Pseudomonas aeruginosa isolate 16 assessed as zone of inhibition by disk diffusion assay; assay type: functional
Pseudomonas aeruginosa [35] = assay: Antibacterial activity against beta-lactamase IMP-13 producing Pseudomonas aeruginosa isolate 17 assessed as zone of inhibition by disk diffusion assay; assay type: functional
Pseudomonas aeruginosa [36] = assay: Antibacterial activity against beta-lactamase IMP-13 producing Pseudomonas aeruginosa isolate 18 assessed as zone of inhibition by disk diffusion assay; assay type: functional

| Compound | MIC (Pseudomonas aeruginosa [1]) | MIC (Pseudomonas aeruginosa [2]) | MIC (Pseudomonas aeruginosa [3]) | MIC (Pseudomonas aeruginosa [4]) | MIC (Pseudomonas aeruginosa [5]) | MIC (Pseudomonas aeruginosa [6]) | MIC (Pseudomonas aeruginosa [7]) | MIC (Pseudomonas aeruginosa [8]) | MIC (Pseudomonas aeruginosa [9]) | MIC (Pseudomonas aeruginosa [10]) | MIC (Pseudomonas aeruginosa [11]) | MIC (Pseudomonas aeruginosa [12]) | MIC (Pseudomonas aeruginosa [13]) | MIC (Pseudomonas aeruginosa [14]) | MIC (Pseudomonas aeruginosa [15]) | MIC (Pseudomonas aeruginosa [16]) | MIC (Pseudomonas aeruginosa [17]) | MIC (Pseudomonas aeruginosa [18]) | inhibition zone (IZ) (Pseudomonas aeruginosa [19]) | inhibition zone (IZ) (Pseudomonas aeruginosa [20]) | also measured |
| --- | --- | --- | --- | --- | --- | --- | --- | --- | --- | --- | --- | --- | --- | --- | --- | --- | --- | --- | --- | --- | --- |
| C[C@@H](O)[C@H]1C(=O)N2C(C(=O)O)=C(SCCNC=N)C[C@H]12 [IMIPENEM ANHYDROUS] | 4 µg/mL (≈ 13.4 µM) | 2 µg/mL (≈ 6.68 µM) | 2 µg/mL (≈ 6.68 µM) | 2 µg/mL (≈ 6.68 µM) | 2 µg/mL (≈ 6.68 µM) | 2 µg/mL (≈ 6.68 µM) | 2 µg/mL (≈ 6.68 µM) | 2 µg/mL (≈ 6.68 µM) | 2 µg/mL (≈ 6.68 µM) | 2 µg/mL (≈ 6.68 µM) | 2 µg/mL (≈ 6.68 µM) | 4 µg/mL (≈ 13.4 µM) | 32 µg/mL (≈ 107 µM) | 32 µg/mL (≈ 107 µM) | 32 µg/mL (≈ 107 µM) | 32 µg/mL (≈ 107 µM) | 2 µg/mL (≈ 6.68 µM) | 2 µg/mL (≈ 6.68 µM) | 20 mm | 21 mm | inhibition zone (IZ) (Pseudomonas aeruginosa [21]): 20 mm; inhibition zone (IZ) (Pseudomonas aeruginosa [22]): 21 mm; inhibition zone (IZ) (Pseudomonas aeruginosa [23]): 21 mm; inhibition zone (IZ) (Pseudomonas aeruginosa [24]): 20 mm; inhibition zone (IZ) (Pseudomonas aeruginosa [25]): 21 mm; inhibition zone (IZ) (Pseudomonas aeruginosa [26]): 21 mm; inhibition zone (IZ) (Pseudomonas aeruginosa [27]): 18 mm; inhibition zone (IZ) (Pseudomonas aeruginosa [28]): 21 mm; inhibition zone (IZ) (Pseudomonas aeruginosa [29]): 21 mm; inhibition zone (IZ) (Pseudomonas aeruginosa [30]): 18 mm; inhibition zone (IZ) (Pseudomonas aeruginosa [31]): 6 mm; inhibition zone (IZ) (Pseudomonas aeruginosa [32]): 6 mm; inhibition zone (IZ) (Pseudomonas aeruginosa [33]): 7 mm; inhibition zone (IZ) (Pseudomonas aeruginosa [34]): 6 mm; inhibition zone (IZ) (Pseudomonas aeruginosa [35]): 20 mm; inhibition zone (IZ) (Pseudomonas aeruginosa [36]): 21 mm |
| C[C@@H](O)[C@H]1C(=O)N2C(C(=O)O)=C(S[C@@H]3CN[C@H](C(=O)N(C)C)C3)[C@H](C)[C@H]12 [MEROPENEM] | 4 µg/mL (≈ 10.4 µM) | 4 µg/mL (≈ 10.4 µM) | 4 µg/mL (≈ 10.4 µM) | 4 µg/mL (≈ 10.4 µM) | 4 µg/mL (≈ 10.4 µM) | 2 µg/mL (≈ 5.22 µM) | 4 µg/mL (≈ 10.4 µM) | 4 µg/mL (≈ 10.4 µM) | 2 µg/mL (≈ 5.22 µM) | 4 µg/mL (≈ 10.4 µM) | 4 µg/mL (≈ 10.4 µM) | 8 µg/mL (≈ 20.9 µM) | 128 µg/mL (≈ 334 µM) | 128 µg/mL (≈ 334 µM) | 128 µg/mL (≈ 334 µM) | 128 µg/mL (≈ 334 µM) | 2 µg/mL (≈ 5.22 µM) | 2 µg/mL (≈ 5.22 µM) | 18 mm | 17 mm | inhibition zone (IZ) (Pseudomonas aeruginosa [21]): 16 mm; inhibition zone (IZ) (Pseudomonas aeruginosa [22]): 21 mm; inhibition zone (IZ) (Pseudomonas aeruginosa [23]): 17 mm; inhibition zone (IZ) (Pseudomonas aeruginosa [24]): 16 mm; inhibition zone (IZ) (Pseudomonas aeruginosa [25]): 17 mm; inhibition zone (IZ) (Pseudomonas aeruginosa [26]): 21 mm; inhibition zone (IZ) (Pseudomonas aeruginosa [27]): 19 mm; inhibition zone (IZ) (Pseudomonas aeruginosa [28]): 20 mm; inhibition zone (IZ) (Pseudomonas aeruginosa [29]): 19 mm; inhibition zone (IZ) (Pseudomonas aeruginosa [30]): 17 mm; inhibition zone (IZ) (Pseudomonas aeruginosa [31]): 6 mm; inhibition zone (IZ) (Pseudomonas aeruginosa [32]): 6 mm; inhibition zone (IZ) (Pseudomonas aeruginosa [33]): 6 mm; inhibition zone (IZ) (Pseudomonas aeruginosa [34]): 6 mm; inhibition zone (IZ) (Pseudomonas aeruginosa [35]): 20 mm; inhibition zone (IZ) (Pseudomonas aeruginosa [36]): 21 mm |

Source: ChEMBL document CHEMBL1240393, “Full Resistance and decreased susceptibility to carbapenems in IMP-13-producing Pseudomonas aeruginosa isolates from an outbreak” (2010)
